According to patent US12263155B2, “Combinations of monoamine oxidase inhibitors and serotonin receptor agonists and their therapeutic use” (Remedi, Inc., priority 2022, dated 2025):

Key:
[1] = target: T1, rat brain MAO-A (Rattus norvegicus, UniProt P21396); assay: In vitro inhibition of rat brain MAO-A; assay type: biochemical
T1 construct: prepared from brain homogenates of male Sprague-Dawley rats, served as the source of MAO-A enzymatic activity; from tissue
T1 sequence (P21396 1-526): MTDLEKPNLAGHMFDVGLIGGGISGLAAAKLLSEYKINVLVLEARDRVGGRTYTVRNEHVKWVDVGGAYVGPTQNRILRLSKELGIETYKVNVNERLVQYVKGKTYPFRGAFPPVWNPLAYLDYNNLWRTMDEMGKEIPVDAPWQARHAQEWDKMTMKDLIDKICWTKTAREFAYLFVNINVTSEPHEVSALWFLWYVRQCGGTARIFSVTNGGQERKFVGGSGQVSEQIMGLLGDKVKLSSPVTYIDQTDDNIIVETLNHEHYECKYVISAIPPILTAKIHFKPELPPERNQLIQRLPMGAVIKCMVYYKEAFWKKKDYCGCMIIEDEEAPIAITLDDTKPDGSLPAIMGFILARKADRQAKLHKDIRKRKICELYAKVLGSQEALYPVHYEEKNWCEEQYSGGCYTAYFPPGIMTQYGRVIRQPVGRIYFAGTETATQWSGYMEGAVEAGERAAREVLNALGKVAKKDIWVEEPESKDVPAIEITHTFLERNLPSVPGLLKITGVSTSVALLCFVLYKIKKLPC
Protocol: Methods: The soluble extract of the mitochondrial enriched fraction (P2 pellet), which was prepared from brain homogenates of male Sprague-Dawley rats, served as the source of MAO-A enzymatic activity. The P2 fraction was prepared and was stored frozen until being thawed for use on the day of assay. Final concentrations of 50 μM [^14C]-serotonin (5-HT) and 10 μM [^14C]-phenylethylamine (PEA) were employed as specific substrates for MAO-A and MAO-B, respectively. Test compound inhibition was based on competition for oxidation of these radio-labeled substrates. MAO-A assay specificity was enhanced by inclusion of 0.1 μM deprenyl to prevent substrate oxidation by MAO-B. Likewise, MAO-B assays included 0.1 μM clorgyline to block MAO-A activity. […] Inhibition of enzymatic activities was expressed as IC50 and as the Ki, which was calculated using the Cheng-Prusoff equation.

[2] = target: T2, Oxidase MAO-B Peripheral (Rattus norvegicus, UniProt P19643); assay: NovaScreen ligand-binding screen, MAO-B; settings: 10.0 nM and 100 nM
T2 construct: purchased NovaScreen
T2 sequence (P19643 1-520): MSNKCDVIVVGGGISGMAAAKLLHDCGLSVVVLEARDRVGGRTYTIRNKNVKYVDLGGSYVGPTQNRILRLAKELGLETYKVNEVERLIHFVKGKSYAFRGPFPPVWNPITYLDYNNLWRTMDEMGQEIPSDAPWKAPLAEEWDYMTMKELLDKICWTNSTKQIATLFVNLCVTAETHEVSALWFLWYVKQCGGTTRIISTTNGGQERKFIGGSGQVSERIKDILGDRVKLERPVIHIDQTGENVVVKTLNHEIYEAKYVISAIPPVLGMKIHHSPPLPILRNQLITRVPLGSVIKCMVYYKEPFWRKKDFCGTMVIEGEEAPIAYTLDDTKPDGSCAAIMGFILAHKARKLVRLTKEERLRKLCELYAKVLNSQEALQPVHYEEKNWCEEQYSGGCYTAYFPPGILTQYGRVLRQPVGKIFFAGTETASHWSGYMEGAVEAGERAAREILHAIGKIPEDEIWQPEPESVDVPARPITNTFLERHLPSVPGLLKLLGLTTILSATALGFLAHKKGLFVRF
Protocol: Methods: Investigational drug candidates CX157 were analyzed in NovaScreen's bank of ligand-binding reactions to test for specificity. CX157 was screened at concentrations of both 10.0 nM and 100 nM as potential competitors in binding reactions involving nine classes containing 69 binding sites. The following binding reactions are tested: Adenosine Non-selective, Adrenergic Alpha 1 Non-selective, Adrenergic Alpha 2 Non-selective, Adrenergic Beta Non-selective, Dopamine Transporter, Dopamine Non-selective, GABA A Agonist Site, GABA A BDZ alpha 1 site, GABA B, Glutamate AMPA Site (Ionotropic), Glutamate Kainate Site (Ionotropic), Glutamate NMDA Agonist Site (Ionotropic), Glutamate NMDA Glycine (Stry-insens Site) (Ionotrophic), Glycine Strychnine-sensitive, Histamine H1, Histamine H2, Histamine H3, Melatonin Non-selective, Muscarinic M1 (hr), Muscarinic M2 (hr), Muscarinic Non-selective Central, Muscarinic Non-selective Peripheral, Nicotinic (α-BnTx insensitive) Neuronal, Norepinephrine Transporter, Opioid Non-selective, Orphanin (hr), Serotonin Transporter, Serotonin Non-selective, Sigma Non-selective, Estrogen, Testosterone (cytosolic), Calcium Channel Type L (Dihydropyridine Site), Calcium Channel Type N, Potassium Channel ATP-Sensitive, Potassium Channel Ca2+ Act. VI, Potassium Channel I[Kr]

O=S1(=O)c2ccc(F)cc2Oc2cc(OCC(F)(F)F)ccc21 [CX157, 3-fluoro-7(2,2,2-trifluorethoxy)phenoxathiine-10,10-dioxide]
Ki for CX157/Ki for RO-41-1049 ([1]; Brain MAO-A): 0.006
Ki fold lower than reference compound RO 41-1049 ([1]; rat brain MAO-A): > 10 fold
IC50 ([1]; rat brain P2 extract, 50 μM [14C]-5-HT): 0.09 nM
Ki ([1]; rat brain, Cheng-Prusoff): 0.09 nM
binding to MAO-B [2]: did not bind to MAO-B
